According to US8709405B2, “Cancer vaccines containing epitopes of oncofetal antigen” (South Alabama Medical Science Foundation, priority 2002, dated 2014):

What was measured:
Type in all cases: cell-based, BALB/c mouse
[1] = system: CD8 iLRP-specific T cell clone M11 (Ts); experiment: BUdR incorporation ELISA proliferation assay, Ts clone M11; conditions: Table 5
Procedure: (§1) The epitopes recognized by 15 iLRP-reactive T cell clones derived from either naive BALB/c mice, BALB/c mice bearing MCA1315 fibrosarcoma tumors, or from BALB/c mice immunized with either 1 or 10 μg of recombinant murine iLRP were determined by testing the proliferation of those clones to overlapping peptides spanning the region of the iLRP molecule recognized by each clone in the presence of IL-2, as a growth factor for T cells and irradiated, T cell-depleted, syngeneic spleen cells as antigen-presenting cells. Proliferation was measured through ELISA determination of 5-bromodeoxyuridine incorporation during culture.
(§2) More specifically, the epitope-specificity of the iLRP-specific Th1, Tc, and Ts clones was determined using a modification of the 5′-bromodeoxyuridine (BudR) incorporation ELISA technique described in Rohrer, J. W., A. L. Barsoum, D. L. Dyess, J. A. Tucker, and J. H. Coggin, Jr. 1999. Human breast carcinoma patients develop clonable oncofetal antigen-specific effector and regulatory T lymphocytes. J. Immunol. 162:6880, using the Biotrak BUdR incorporation assay (Amersham, Arlington Heights, Ill.). […] When the required color density was reached, the reaction was stopped by adding 25 μl of 1M sulfuric acid to each well and the plate read on a microELISA reader at 450 nm. […]

[2] = system: iLRP-specific T cell clone L5 (Tc); experiment: BUdR incorporation ELISA proliferation assay, Tc clone L5; conditions: for BudR Incorporation (A450), T cell clone L5 (Tc): Table 8, overlapping 12-mers of iLRP 136-166, 100 U/ml IL-2
Procedure: as §1
(§3) More specifically, the epitope-specificity of the iLRP-specific Th1, Tc, and Ts clones was determined using a modification of the 5′-bromodeoxyuridine (BudR) incorporation ELISA technique described in Rohrer, J. W., A. L. Barsoum, D. L. Dyess, J. A. Tucker, and J. H. Coggin, Jr. 1999. Human breast carcinoma patients develop clonable oncofetal antigen-specific effector and regulatory T lymphocytes. J. Immunol. 162:6880, using the Biotrak BUdR incorporation assay (Amersham, Arlington Heights, Ill.). Briefly, at the time of restimulation of the clones, a portion of the cloned T cells were assayed for proliferation to antigen-presenting cells (APC) and various iLRP peptides. The assay was performed with 10,000 viable cloned T cells/well plus […] irradiated syngeneic spleen cells (APC) plus 100 ng/well of intact iLRP/OFA protein or the various truncated iLRP/OFA proteins or the various iLRP/OFA peptides in Iscove's modified Dulbecco's medium (IMDM) containing 2 mM L-glutamine, 100 U/ml of penicillin G, 100 μg of streptomycin sulfate, and 10% fetal calf serum. The cells were cultured for a total of 48 hours. After 24 hours of culture 5′-bromodeoxyuridine was added to a final concentration of 10 μM/well. The cells were cultured for another 24 hours. At the end of the last 24 hours of incubation, the plates were centrifuged at 300×g for 10 min, and the labelling medium removed. The cells were then dried at 60° C. for 1 hour. The cells were fixed with an ethanol fixative provided in the Biotrak kit for 30 min at room temperature, fixative was removed, and the wells were coated with blocking buffer (1% protein in 50 mM Tris-HCl, 150 mM NaCl, pH 7.4) and incubated for 30 min at room temperature. The blocking buffer was removed, 100 μl of 1:100 diluted peroxidase-labelled anti-BUdR antibody was added to each well and the plates were incubated for 90 min at room temperature. The antibody solution was removed, and the wells washed three times with 300 μl/well of wash buffer. 200 μl of 3,3′, 5,5′-tetramethylbenzidine in […] DMSO was added to each well and the plate was covered and incubated at room temperature while oscillating gently for 5-30 min. When the required color density was reached, the reaction was stopped by adding 25 μl of 1M sulfuric acid to each well and the plate read on a microELISA reader at 450 nm.
(§4) Each time the assay was done, clones were stimulated by APC and intact iLRP/OFA as a positive control. Cloned T cells were also cultured in the presence of only APC in IMDM or in the presence of APC and an iLRP/OFA peptide or truncated iLRP/OFA known not to stimulate the clones being tested. These served as negative controls. In wells where BUdR was incorporated (the iLRP/OFA stimulates proliferation of the T cells), the A450 was at least 10-fold and often approximately 50-fold higher than the negative controls. Because the Ts cells always presented with apparently low affinity T cell antigen receptors, their BUdR incorporation gave A450 values about 10 times higher than the negative controls (e.g., about 0.2 vs. 0.02), but about 5 times lower than the Th1 or Tc clones (e.g., usually about 0.9). […]

[3] = system: iLRP-specific Th1, Tc, and Ts clones; experiment: BUdR incorporation proliferation assay, comparison across iLRP-specific T cell clone types; conditions: Table 14; type of T cell clone reactive with the 12-mer
Procedure: as §1, §3
(§5) Each time the assay was done, clones were stimulated by APC and intact iLRP/OFA as a positive control. Cloned T cells were also cultured in the presence of only APC in IMDM or in the presence of APC and an iLRP/OFA peptide or truncated iLRP/OFA known not to stimulate the clones being tested. These served as negative controls. In wells where BUdR was incorporated (the iLRP/OFA stimulates proliferation of the T cells), the A450 was at least 10-fold and often approximately 50-fold higher than the negative controls. Because the Ts cells always presented with apparently low affinity T cell antigen receptors, their BUdR incorporation gave A450 values about 10 times higher than the negative controls (e.g., about 0.2 vs. 0.02), but about 5 times lower than the Th1 or Tc clones (e.g., usually about 0.9).
Determination of the portion of the truncated iLRP/OFA protein or peptide reacted to by a given clone was done by analysis of the proliferation pattern to the various truncated proteins or peptides. […]

[4] = system: iLRP-specific T cell clone H2 (Ts); experiment: BUdR incorporation ELISA proliferation assay, Ts clone H2; conditions: for BudR Incorporation (A450), T cell clone H2 (Ts): Table 8, overlapping 12-mers of iLRP 136-166, 100 U/ml IL-2
Procedure: as §1, §3, §4

[5] = system: iLRP-specific T cell clone H4 (Ts); experiment: BUdR incorporation ELISA proliferation assay, Ts clone H4; conditions: for BudR Incorporation (A450), T cell clone H4 (Ts): Table 8, overlapping 12-mers of iLRP 136-166, 100 U/ml IL-2
Procedure: as §1, §3, §4

[6] = system: iLRP-specific T cell clone H3 (Th1); experiment: BUdR incorporation ELISA proliferation assay, Th1 clone H3; conditions: for BudR Incorporation (A450), T cell clone H3 (Th1): Table 8, overlapping 12-mers of iLRP 136-166, 100 U/ml IL-2
Procedure: as §1, §3, §4

[7] = system: iLRP-specific T cell clone L4 (Tc); experiment: BUdR incorporation ELISA proliferation assay, Tc clone L4; conditions: Table 8; overlapping 12-mers of iLRP 136-166; 100 U/ml IL-2
Procedure: as §1, §3, §4

Tc Clone L2 = experiment: BUdR incorporation ELISA proliferation assay, Tc clone L2; conditions: Table 11
Procedure: as §1, §2

CD8 T cell clone M3 (Tc) = experiment: BUdR incorporation ELISA proliferation assay, Tc clone M3; conditions: Table 4
Procedure: as §1, §2

[8] = system: CD8 iLRP-specific T cell clone L6 (Tc); experiment: BUdR incorporation ELISA proliferation assay, Tc clone L6; conditions: Table 5
Procedure: as §1
More specifically, the epitope-specificity of the iLRP-specific Th1, Tc, and Ts clones was determined using a modification of the 5′-bromodeoxyuridine (BudR) incorporation ELISA technique described in Rohrer, J. W., A. L. Barsoum, D. L. Dyess, J. A. Tucker, and J. H. Coggin, Jr. 1999. Human breast carcinoma patients develop clonable oncofetal antigen-specific effector and regulatory T lymphocytes. J. Immunol. 162:6880, using the Biotrak BUdR incorporation assay (Amersham, Arlington Heights, Ill.). Briefly, at the time of restimulation of the clones, a portion of the cloned T cells were assayed for proliferation to antigen-presenting cells (APC) and various iLRP peptides. The assay was performed with 10,000 viable cloned T cells/well plus […] irradiated syngeneic spleen cells (APC) plus 100 ng/well of intact iLRP/OFA protein or the various truncated iLRP/OFA proteins or the various iLRP/OFA peptides in Iscove's modified Dulbecco's medium (IMDM) containing 2 mM L-glutamine, 100 U/ml of penicillin G, 100 μg of streptomycin sulfate, and 10% fetal calf serum. The cells were cultured for a total of 48 hours. After 24 hours of culture 5′-bromodeoxyuridine was added to a final concentration of 10 μM/well. The cells were cultured for another 24 hours. […] When the required color density was reached, the reaction was stopped by adding 25 μl of 1M sulfuric acid to each well and the plate read on a microELISA reader at 450 nm. […]

[9] = system: iLRP-specific T cell clone L1 (CD8 Ts); experiment: BUdR incorporation ELISA proliferation assay, Ts clone L1; conditions: Table 3; for BUdR Incorporation (A450) of iLRP-specific T cell clone L1 cells, Expt. 1 / BUdR Incorporation (A450) of iLRP-specific T cell clone L1 cells, Expt. 2: 100 ng/well stimulant with irradiated syngeneic spleen cells (APC), 48 h culture
Procedure: as §1, §3, §5
Overlapping 12mer peptides of the first 25 amino acids of murine iLRP were produced. Thus, peptides 1-4 corresponded to amino acid residues 1-12, 5-16, 9-20 and 17-28 of murine iLRP. […]

ATGATPIAGRFT [P18 (aa 93-104)]
Proliferation of clone M11 (in words) [1]: proliferated equally well

CNTDSPLRYVDI [Peptide 31-4]
BudR Incorporation (A450), T cell clone L5 (Tc) [2]: .89 A450
Proliferative response of Tc clone L5 (in words) ([2]; text on Table 8): equal proliferative response
Reactive T cell clones [3]: Tc & TH1
BudR Incorporation (A450), T cell clone H2 (Ts) [4]: .016 A450
BudR Incorporation (A450), T cell clone H4 (Ts) [5]: .016 A450
BudR Incorporation (A450), T cell clone H3 (Th1) [6]: .81 A450
Response of Th1 clone H3 (in words) ([6]; text on Table 8): slightly lower response
BudR Incorporation (A450), T cell clone L4 (Tc) [7]: .023 A450

EASYVNLPTIAL [Peptide 31-1]
BudR Incorporation (A450), T cell clone L5 (Tc) [2]: .017 A450
Reactive T cell clones [3]: Ts
BudR Incorporation (A450), T cell clone H2 (Ts) [4]: .23 A450
Proliferation of Ts clone H2 (in words) ([4]; text on Table 8): proliferated equally
BudR Incorporation (A450), T cell clone H4 (Ts) [5]: .22 A450
Proliferation of Ts clone H4 (in words) ([5]; text on Table 8): proliferated equally
BudR Incorporation (A450), T cell clone H3 (Th1) [6]: .016 A450
BudR Incorporation (A450), T cell clone L4 (Tc) [7]: .015 A450

EEFQGEWTAPAP [P17 (225-236)]
Proliferation of CD8 Tc clone L2 (in words) (Tc Clone L2): proliferated identically

INLKRTWEKLLL [P7 (aa 49-60)]
Proliferation of clone M3 (in words) (CD8 T cell clone M3 (Tc)): proliferated to iLRP peptides 7 and 8 equally well

ISSRNTGQRAVL [P14 (aa 77-88)]
Proliferation of clone L6 (in words) [8]: proliferated equally well

KLLAAGTHLGGT [Peptide 4]
Proliferation of clone L1 (in words) [9]: proliferates to a peptide contained almost entirely in peptide 4
BUdR Incorporation (A450) of iLRP-specific T cell clone L1 cells, Expt. 1 [9]: .28 A450
BUdR Incorporation (A450) of iLRP-specific T cell clone L1 cells, Expt. 2 [9]: .27 A450

LDVLQMKEEDVL [Peptide 2]
BUdR Incorporation (A450) of iLRP-specific T cell clone L1 cells, Expt. 1 [9]: .017 A450
BUdR Incorporation (A450) of iLRP-specific T cell clone L1 cells, Expt. 2 [9]: .019 A450

MSGALDVLQMKE [Peptide 1]
BUdR Incorporation (A450) of iLRP-specific T cell clone L1 cells, Expt. 1 [9]: .018 A450
BUdR Incorporation (A450) of iLRP-specific T cell clone L1 cells, Expt. 2 [9]: .020 A450

NTGQRAVLKFAA [P15 (aa 81-92)]
Proliferation of clone L6 (in words) [8]: proliferated equally well

P10 (aa 61-72): iLRP 12-mer peptide, amino acids 61-72 (AARAIVAIENPA)
BUdR incorporation, CD8 iLRP-specific T cell clone L6 (Tc) ([8]; 100 ng/well stimulant with APC, two values given): .017, .017 A450
